Measured values as given in ChEMBL document CHEMBL3997792, “Identification of the First Selective Activin Receptor-Like Kinase 1 Inhibitor, a Reversible Version of L-783277” (J Med Chem, 2017).
Calls of active or inactive are those of the source. No cut-off for these calls is given here.

Assays:
[1] = target: T1, Activin receptor type-1-like (Mus musculus) (UniProt Q61288); assay: Inhibition of BMP9-stimulated ALK1 in mouse C2C12 cells assessed as reduction in Smad1/5 phosphorylation at 10 uM pretreated for 2 hrs followed by BMP9-stimulation after 30 mins by western blot analysis relative to control; format: cell-based
T1 sequence (whole entry): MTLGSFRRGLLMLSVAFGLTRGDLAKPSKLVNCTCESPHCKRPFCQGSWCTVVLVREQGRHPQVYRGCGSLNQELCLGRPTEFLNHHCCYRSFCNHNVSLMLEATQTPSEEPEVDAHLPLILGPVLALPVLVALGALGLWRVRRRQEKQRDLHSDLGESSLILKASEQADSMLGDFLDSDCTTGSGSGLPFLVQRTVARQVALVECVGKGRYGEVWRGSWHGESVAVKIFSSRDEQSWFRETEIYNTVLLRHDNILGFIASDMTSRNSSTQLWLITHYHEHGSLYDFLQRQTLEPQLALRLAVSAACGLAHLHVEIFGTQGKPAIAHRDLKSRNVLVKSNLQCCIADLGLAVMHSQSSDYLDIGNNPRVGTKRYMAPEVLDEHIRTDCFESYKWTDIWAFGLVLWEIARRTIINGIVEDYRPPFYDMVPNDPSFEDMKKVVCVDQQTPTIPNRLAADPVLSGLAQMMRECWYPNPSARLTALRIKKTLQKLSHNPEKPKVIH

[2] = target: T2, Activin receptor type-1-like (Homo sapiens, UniProt P37023); assay: Inhibition of human ALK1 at 10 uM using casein as substrate in presence of [gamma-33P]-ATP by scintillation counting method relative to control
T2 sequence (P37023 whole entry): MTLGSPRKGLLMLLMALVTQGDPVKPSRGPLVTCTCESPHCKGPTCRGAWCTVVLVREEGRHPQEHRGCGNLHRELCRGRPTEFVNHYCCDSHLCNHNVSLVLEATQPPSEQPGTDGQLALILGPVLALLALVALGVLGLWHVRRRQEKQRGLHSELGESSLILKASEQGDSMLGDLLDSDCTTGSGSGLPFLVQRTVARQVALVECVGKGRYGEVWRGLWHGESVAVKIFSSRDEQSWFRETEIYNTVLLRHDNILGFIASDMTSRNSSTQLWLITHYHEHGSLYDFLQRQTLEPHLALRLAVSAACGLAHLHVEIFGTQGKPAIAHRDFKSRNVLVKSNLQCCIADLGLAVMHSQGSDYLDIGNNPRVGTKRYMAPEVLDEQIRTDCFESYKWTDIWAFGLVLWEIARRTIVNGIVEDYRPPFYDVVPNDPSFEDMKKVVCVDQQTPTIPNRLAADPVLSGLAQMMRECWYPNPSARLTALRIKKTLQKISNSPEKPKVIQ

[3] = target: T3, TGF-beta receptor type-1 (Mus musculus, UniProt Q64729); assay: Inhibition of ALK5 in mouse C2C12 cells assessed as decrease in TGFbeta1-induced Smad1/5 phosphorylation at 0.1 uM by Western blot method; format: cell-based
T3 sequence (Q64729 whole entry): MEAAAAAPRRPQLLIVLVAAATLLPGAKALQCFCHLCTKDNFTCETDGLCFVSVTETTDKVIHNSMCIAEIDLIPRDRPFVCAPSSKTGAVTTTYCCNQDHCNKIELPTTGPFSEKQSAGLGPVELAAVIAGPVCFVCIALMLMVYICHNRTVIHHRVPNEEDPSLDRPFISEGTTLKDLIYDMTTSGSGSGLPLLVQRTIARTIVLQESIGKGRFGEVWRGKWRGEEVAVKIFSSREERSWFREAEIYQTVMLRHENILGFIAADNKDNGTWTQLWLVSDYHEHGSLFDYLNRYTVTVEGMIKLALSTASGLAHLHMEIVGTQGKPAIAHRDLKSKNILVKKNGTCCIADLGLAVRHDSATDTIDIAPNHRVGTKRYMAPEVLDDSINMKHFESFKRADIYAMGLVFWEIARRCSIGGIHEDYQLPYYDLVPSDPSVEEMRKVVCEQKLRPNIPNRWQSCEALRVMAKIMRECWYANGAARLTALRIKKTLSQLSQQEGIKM

[4] = target: T2, Activin receptor type-1-like; assay: Inhibition of human ALK1 using casein as substrate in presence of [gamma-33P]-ATP by scintillation counting method

Row | Structure (SMILES) | inhibition [1] | inhibition [2] [%] | inhibition (INH) [3] | IC50 [4] [nM]
1 | COc1cc(O)c2c(c1)CCC[C@H](O)[C@H](O)C(=O)NCC[C@H](C)OC2=O | inactive | < 40 | – | –
2 | c1ccc2c(-c3cnn4cc(-c5ccc(N6CCNCC6)cc5)cnc34)ccnc2c1 | – | – | Active | –
3 | COc1cc(O)c2c(c1)CCC[C@H](O)[C@H](O)[C@@H](O)CCC[C@H](C)OC2=O | 70 to 80% | – | – | 770
4 | COc1cc(O)c2c(c1)CCC[C@H](O)[C@H](O)[C@H](O)CCC[C@H](C)OC2=O | Active | – | – | 1780
